Laboratory results taken from ChEMBL document CHEMBL1150135, “Pharacine, a natural p-cyclophane and other indole derivatives from Cytophaga sp. strain AM13.1” (J Nat Prod, 2002).
Active and inactive are the calls of the source.

Tests used:
Assay type in all cases: functional, organism-based
Bacillus subtilis = assay: Antimicrobial activity against Bacillus subtilis by agar diffusion method
[1] = test system: Streptomyces viridochromogenes; assay: Antimicrobial activity against Streptomyces viridochromogenes by agar diffusion method
Staphylococcus aureus = assay: Antimicrobial activity against Staphylococcus aureus by agar diffusion method
Candida albicans = assay: Antimicrobial activity against Candida albicans by agar diffusion method
Rhizomucor miehei = assay: Antimicrobial activity against Mucor miehei by agar diffusion method
Escherichia coli = assay: Antimicrobial activity against Escherichia coli by agar diffusion method

Measured: Activity

c1ccc2c(Cc3cnc(Cc4c[nH]c5ccccc45)cn3)c[nH]c2c1
inactive: Bacillus subtilis | [1] | Staphylococcus aureus | Candida albicans | Rhizomucor miehei | Escherichia coli

CC(C)CC(=O)NCCc1c[nH]c2ccccc12
inactive: Bacillus subtilis | [1] | Staphylococcus aureus | Candida albicans | Rhizomucor miehei | Escherichia coli

O=C1OCCCCOC(=O)c2ccc(cc2)C(=O)OCCCCOC(=O)c2ccc1cc2
inactive: Bacillus subtilis | [1] | Staphylococcus aureus | Candida albicans | Rhizomucor miehei | Escherichia coli

NC(=O)Cc1ccc(O)cc1
inactive: Bacillus subtilis | [1] | Staphylococcus aureus | Candida albicans | Rhizomucor miehei | Escherichia coli
